As a reminder, the solubility is how much of the substance goes into solution per volume.

The nature of data set [1]: Absorbance/emission spectra in ethanol. The format is physicochemical. The arrangement: key to Excitation Max / Emission Max: wavelength in nm. Particulars: for Absorbance Max / Emission Max / Excitation Max: solutions in ethanol. The protocol:
Referring now to Table 1 there are shown representations of the absorbance and emission properties of some example compounds of the present invention. Absorption and Fluorescence spectra were […] using 0.25 μM solutions in ethanol on a Jasco, Inc. UV-530 UV/VIS spectrophotometer and FP 750 spectrofluorometer, respectively. Approximate extinction coefficients were estimated from the absorbance scans by dividing the maximum absorbance by the nominal concentration ([…]).

The nature of data set [2]: Solubility of FR/NIR probes in ethanol, water and Diluent C. The format is physicochemical. The protocol: Effects of the various combinations of asymmetrical and symmetrical alkyl chains and methene bridges on the solubility of the compounds of the present invention were examined. Compounds 8, 25, 13, 15 and 26 were all soluble in ethanol at concentrations≧1 mM. The more lipophilic probes 15 and 26, however, required sonication for a few minutes to achieve dissolution at 1 mM in ethanol. All example probes-were poorly soluble in water. Triplicate 1:50 dilutions of stock 1 mM probe solutions were made in either ethanol or test diluent. After 30 minutes at room temperature solutions were centrifuged at 10,000×g for 10 minutes to remove any microagregates and […] aliquots were transferred to 2.0 ml of ethanol for absorbance determinations. Based on the teachings of Leung et al. and on solubility specifications found on Sigma Certificates of Analysis for the commercial diluents (diluent supernatant absorbance at 30 minutes at least 60% of ethanol supernatant absorbance after 30 minutes), a preliminary specification at least 60% of the ethanol control was set as a surrogate for solubility sufficient to achieve cell labeling with S/N ratios greater than 100 and to minimize potential problems with brightness or reproducibility of labeling. None of the probes was as soluble after 30 minutes in Diluent C as PKH26 (86%±4% of ethanol control).

Data set [3] concerns YAC-1 murine lymphoma cells. The data set can be described thus: Probe effects on cell viability and cell growth (Maximum Tolerated Concentration). The format is cell-based. The following applies: for Growth Inhibition / Cytotoxicity: at MTC; for Growth Inhibition: 22-24 hours culture, versus diluent alone; for Cytotoxicity: trypan blue exclusion immediately post-staining (T = 0). The method, then:
YAC-1 murine lymphoma cells were stained at a concentrations of 10^7 cells/ml with increasing concentrations of probe by rapidly admixing 2× cells suspended in Diluent C with 2× probe in Diluent C. After 5 minutes at room temperature, the staining was stopped by the addition of cell culture medium. Cells were then washed thoroughly (RPI1640+10.0% FBS) and cultured under standard conditions for 22-24 hours. Cell numbers were compared to those in a control culture treated with diluent alone.
Maximum Tolerated Concentration (MTC) of probe was defined as the highest concentration of probe at which (1) viability by trypan blue exclusion immediately post-staining was>90% and (2) YAC cell growth after 24 hours was no more than 10% different than growth of cells in diluent alone.

With `CCCCCCCCCCCCCCCCCCCCCC[N+]1=C(/C=C/C=C/C=C2/N(CCCCCCCCCCCCCC)c3ccc4ccccc4c3C2(C)C)C(C)(C)c2ccccc21` [Compound 25], in data set [1], the “Absorbance Max” value is on record as 666, the “Emission Max” value is recorded as 682 and the “Excitation Max” value came to 667. Further, the “solubility retained in Diluent C after 30 minutes” value (shortened to “solubility retained in Diluent C”) in data set [2] (30 min, 20 µM) was “greater than 55 % of solubility at T0”. Besides, in data set [2] (organic solvent or mixture), the solubility was at least 1000 µM. The “MTC (Maximum Tolerated Concentration)” value in data set [3] (YAC-1 cells, 5 minutes staining in Diluent C) came to 10 µM. In data set [3], the “Growth Inhibition” value was below 4% and the Cytotoxicity is on record as below 1%.
For `CCCCCCCCCCCCCCCCCCCCCC[N+]1=C(/C=C/C=C/C=C/C=C2/N(CCCCCCCCCCCCCC)c3ccc4ccccc4c3C2(C)C)C(C)(C)c2c1ccc1ccccc21.[I-]` [Compound 15], in data set [1], the “Absorbance Max” value came to 786, the “Emission Max” value came to 814 and the “Excitation Max” value is recorded as 790. For the same compound, the “solubility retained in Diluent C” value in data set [2] (Diluent C, 30 minutes) is reported as “approximately 65 % of solubility at T0”. For the same compound, in data set [3], the “Growth Inhibition” value is below 5% and the Cytotoxicity was below 1%.
Turning to `CCCCCCCCCCCCCCCCCCCCCC[N+]1=C(/C=C/C=C2/N(CCCCCCCCCCCCCC)c3ccccc3C2(C)C)C(C)(C)c2ccccc21.[I-]` [PKH26, reference compound], the “solubility after 30 minutes in Diluent C” value in data set [2] (1:50 dilution of 1 mM stock, 30 minutes at room temperature) is on record as 86%±4%. For the same compound, in data set [3], the “Growth Inhibition” value is listed as below 1% and the Cytotoxicity is listed as below 1%.
In data set [1] (excitation light of about 635 nm), `CCCCCCCCCCCCCCCCCCCCCC[N+]1=C(/C=C/C=C/C=C2/N(CCCCCCCCCCCCCC)c3ccccc3C2(C)C)C(C)(C)c2ccccc21.[I-]` [Compound 8] gave a maximum fluorescence of 667 nm. Also, in data set [1], the “Absorbance Max” value was determined as 626, the “Emission Max” value is on record as 667 and the “Excitation Max” value was found to be 647. Also, the “solubility retained in Diluent C” value in data set [2] (Diluent C, 30 minutes) is “approximately 65 % of solubility at T0”. Further, in data set [3], the “Growth Inhibition” value is below 1% and the Cytotoxicity is reported as below 1%.
`CCCCCCCCCCCCCCCCCCCCCC[N+]1=C(/C=C/C=C/C=C2/N(CCCCCCCCCCCCCC)c3ccc4ccccc4c3C2(C)C)C(C)(C)c2c1ccc1ccccc21.[I-]` [Compound 13]: the emission maximum wavelength in data set [1] (excitation light of about 647 nm) came out at 713 nm. Moreover, in data set [1], the “Absorbance Max” value came to 684, the “Emission Max” value is 713 and the “Excitation Max” value was 680. In data set [3], the “Growth Inhibition” value is recorded as below 1% and the Cytotoxicity is on record as below 1%.

The values are drawn from US7462347B2, “Fluorescent membrane intercalating probes” (priority 2000, dated 2008).
